In US12624018B1, “Inhibitors of RIPK2 and medical uses thereof” (Odyssey Therapeutics, Inc., priority 2022, dated 2026):
Where two headings read alike, the source gives them in different places.

Assays:
human NOD2 signaling = assay: Inhibition of human NOD2 signaling in HEK-Blue-hNOD2 cells (L18-MDP stimulated, SEAP reporter); type: cell-based; settings: NOD2 ligand stimulation, SEAP reporter, read-out: hNOD2 IC50
Experimental: Materials: Human NOD32-expressing 1TEK293 cells, HEK-Blue™-hNOD2 cells, were developed by Invivogen (catalogue number: hkb-hnod2) using co-transfection of the human NOD2 gene and an optimized secreted embryonic alkaline phosphatase (SEAP) reporter gene into HTEK293 cells. The cell maintenance medium consisted of DMEM (Giboc, 21063-029), heat inactivated FBS, penicillin (100 U/mL), streptomycin (100 μg/mL), Normocin (100 μg/mL), Blasticidin (30 μg/mL), and Zeocin (100 μg/mL). HEK-Blue™-hNOD2 cells were transferred to assay medium consisting of DMEM (Giboc, 21063-029), heat inactivated FBS, penicillin (100 U/mL) and streptomycin (100 μg/mL) prior to stimulation. Stimulation with a NOD2 ligand, L18-MDP (Invivogen, catalogue number: tlrl-lmdp) activated NF-κB and AP-1 which induced the production of SEAP. Levels of SEAP were determined with HEK-Blue™ Detection (referred to as QUANTI-Blue solution), a cell culture medium that allows for real-time detection of SEAP. QUANTI-Blue solution was prepared by adding 1 mL of QB reagent and 1 mL of QB buffer to 98 mL of sterile H2O. Test compounds were prepared into a 10 mM DMSO solution and were serially diluted into 10 points using a 3-fold dilution in a 384 well plate using a TECAN EVO200.
Method: In a 384 well plate, 40 nL of test compound was dispensed using Echo550. HEK-Blue™-hNOD2 cells (Invivogen) were prepared into a cell suspension and 40 μL of the cell suspension (12500 cells per well) was dispensed into the 384 well plate. To activate NOD2 signaling, 40 nL of L18-MDP (final concentration of 0.5 ng/mL) was added and the plate was incubated at 37° C. in a CO2 incubator for 24 hours. After the 24-hour incubation, 5 μL of the induced HEK-Blue hNOD2 cell supernatant was transferred to a new 384-well plate, centrifuged, and 45 μL of QUANTI-Blue solution was added per well and incubated for 3 hours at 37° C. SEAP levels were measured using an Ensight at 620 nm. Percent inhibition of NOD2 signaling was determined using the following equation: (high control−test compound signal)/(High control−low control)×100. The reaction high control was determined using wells with DMSO, cells, L18-MDP, and QUANTI-Blue solution. The reaction low control was determined using wells with DMSO, cells, and QUANTI-Blue solution. 4-parametric curve fit was used to determine the test compound concentration that results in 50% reduction of L18-MDP-driven human NOD2 signaling.
Using the assay described above, inhibition of hNOD2 signaling was also evaluated for GSK 2983559 (Haile at al., J. Med. Chem. 2019, 62, 14, 6482-6494), a known RIPK2 kinase inhibitor: […]

RIPK2 enzyme = biological target: T1, RIPK2 enzyme (Homo sapiens, UniProt O43353); assay: RIPK2 inhibition (ADP-Glo Kinase Assay); type: biochemical; settings: RIPK2 5 nM, ATP 150 μM, MBP substrate, read-out: RIPK2 IC50
T1 construct: purchased Carna 09-128
How it was run: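 Swine MBP substrate; compound and 5 nM RIPK2 first mixed for 30 min at room temperature; buffer pH 7.5 HEPES 50 mM with 10 mM MgCl2, 2 mM DTT, 1 mM EGTA, Brij-35, BSA.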

[1] = Homo sapiens, HEK-Blue hNOD2, HEK-Blue-hNOD2 cells

T1 sequence (O43353 1-299 limits assumed): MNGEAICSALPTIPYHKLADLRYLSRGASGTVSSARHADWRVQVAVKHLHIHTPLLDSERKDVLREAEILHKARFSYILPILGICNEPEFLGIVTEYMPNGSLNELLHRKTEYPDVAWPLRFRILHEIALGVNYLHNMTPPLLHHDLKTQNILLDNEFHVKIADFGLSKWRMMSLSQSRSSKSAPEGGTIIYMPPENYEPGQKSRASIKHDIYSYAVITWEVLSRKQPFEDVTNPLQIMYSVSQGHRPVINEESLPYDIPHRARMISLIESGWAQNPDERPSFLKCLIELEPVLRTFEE

IC50 (human NOD2 signaling; [1]) [nM]	IC50 (RIPK2 enzyme) [nM]	IC50 (human NOD2 signaling; HEK-Blue-hNOD2 cells) [nM]	Compound
27	< 2.5		Cc1cc(CC(=O)Nc2cnn(C(C)C(F)(F)F)c2)ccc1Oc1ccnc2ccc(S(C)(=O)=O)cc12 (single isomer, unassigned) [Compound 594, 2-(3-methyl-4-((6-(methylsulfonyl)quinolin-4-yl)oxy)phenyl)-N-(1-(1,1,1-trifluoropropan-2-yl)-1H-pyrazol-4-yl)acetamide]
	< 2.5	19.3	Cc1cc(CC(=O)Nc2cnn(C(C)C(F)(F)F)c2)ccc1Oc1ccnc2ccc(S(C)(=O)=O)cc12 (single isomer, unassigned) [Compound 595, 2-(3-methyl-4-((6-(methylsulfonyl)quinolin-4-yl)oxy)phenyl)-N-(1-(1,1,1-trifluoropropan-2-yl)-1H-pyrazol-4-yl)acetamide]
46.3	< 2.5		Cc1cc(CC(=O)Nc2cnn(C(C)(C)C)c2)ccc1Oc1ccnc2ccc(C(O)C(N)=O)cc12 (single isomer, unassigned) [Compound 609, 2-(4-((6-(2-amino-1-hydroxy-2-oxoethyl)quinolin-4-yl)oxy)-3-methylphenyl)-N-(1-(tert-butyl)-1H-pyrazol-4-yl)acetamide]
17.5	2.8		Cc1cc(CC(=O)Nc2cnn(C(C)(C)C)c2)ccc1Oc1ccnc2ccc(C(C)(O)C(N)=O)cc12 (single isomer, unassigned) [Compound 615, 2-(4-(4-(2-((1-(tert-butyl)-1H-pyrazol-4-yl)amino)-2-oxoethyl)-2-methylphenoxy)quinolin-6-yl)-2-hydroxypropanamide]
	< 2.5	22.4	Cc1cc(CC(=O)Nc2cnn(C(C)(C)C)c2)ccc1Oc1ccnc2ccc(C(C)(O)C(N)=O)cc12 (single isomer, unassigned) [Compound 616, 2-(4-(4-(2-((1-(tert-butyl)-1H-pyrazol-4-yl)amino)-2-oxoethyl)-2-methylphenoxy)quinolin-6-yl)-2-hydroxypropanamide]
6.7	< 2.5		Cc1cc(CC(=O)Nc2cc(C(C)(C)C)[nH]n2)ccc1Oc1ccnc2cc(F)c(S(C)(=N)=O)cc12 (single isomer, unassigned) [Compound 620, N-(5-(tert-butyl)-1H-pyrazol-3-yl)-2-(4-((7-fluoro-6-(S-methylsulfonimidoyl)quinolin-4-yl)oxy)-3-methylphenyl) acetamide]
	< 2.5	11.7	Cc1cc(CC(=O)Nc2cc(C(C)(C)C)[nH]n2)ccc1Oc1ccnc2cc(F)c(S(C)(=N)=O)cc12 (single isomer, unassigned) [Compound 621, N-(5-(tert-butyl)-1H-pyrazol-3-yl)-2-(4-((7-fluoro-6-(S-methylsulfonimidoyl)quinolin-4-yl)oxy)-3-methylphenyl) acetamide]
7.5	< 2.5		CC(C)(C)n1cc(NC(=O)Cc2ccc(Oc3ccnc4ccc(C(N)=O)cc34)c(C(F)F)c2)cn1 [Compound 462, 4-(4-(2-((1-(tert-butyl)-1H-pyrazol-4-yl)amino)-2-oxoethyl)-2-(difluoromethyl)phenoxy) quinoline-6-carboxamide]
4	< 2.5		CNC(=O)c1ccc2nccc(Oc3ccc(CC(=O)Nc4cnn(C(C)(C)C)c4)cc3C(F)F)c2c1 [Compound 463, 4-(4-(2-((1-(tert-butyl)-1H-pyrazol-4-yl)amino)-2-oxoethyl)-2-(difluoromethyl)phenoxy)-N-methylquinoline-6-carboxamide]
54	4.2		Cc1cc(CC(=O)Nc2cnn(C(C)(C)C)c2)c(F)cc1Oc1ccnc2ccc(-c3ncccc3C)cc12 [Compound 475, N-(1-(tert-butyl)-1H-pyrazol-4-yl)-2-(2-fluoro-5-methyl-4-((6-(3-methylpyridin-2-yl)quinolin-4-yl)oxy)phenyl)acetamide]
26	< 2.5		Cc1cc(CC(=O)Nc2cnn(C(C)(C)C)c2)c(F)cc1Oc1ccnc2ccc(-c3c[nH]nc3O)cc12 [Compound 478, N-(1-(tert-butyl)-1H-pyrazol-4-yl)-2-(2-fluoro-4-((6-(3-hydroxy-1H-pyrazol-4-yl)quinolin-4-yl)oxy)-5-methylphenyl)acetamide]
0.8	< 2.5		COc1n[nH]cc1-c1ccc2nccc(Oc3cc(F)c(CC(=O)Nc4cnn(C(C)(C)C)c4)cc3C)c2c1 [Compound 480, N-(1-(tert-butyl)-1H-pyrazol-4-yl)-2-(2-fluoro-4-((6-(3-methoxy-1H-pyrazol-4-yl)quinolin-4-yl)oxy)-5-methylphenyl)acetamide]
0.6	< 2.5		CCc1nc(-c2ccc3nccc(Oc4cc(F)c(CC(=O)Nc5cnn(C(C)(C)C)c5)cc4C)c3c2)n[nH]1 [Compound 483, N-(1-(tert-butyl)-1H-pyrazol-4-yl)-2-(4-((6-(5-ethyl-1H-1,2,4-triazol-3-yl)quinolin-4-yl)oxy)-2-fluoro-5-methylphenyl)acetamide]
0.4	< 2.5		Cc1cc(CC(=O)Nc2cnn(C(C)(C)C)c2)c(F)cc1Oc1ccnc2ccc(-c3nc[nH]n3)cc12 [Compound 484, 2-(4-((6-(1H-1,2,4-triazol-3-yl)quinolin-4-yl)oxy)-2-fluoro-5-methylphenyl)-N-(1-(tert-butyl)-1H-pyrazol-4-yl)acetamide]
0.3	< 2.5		[2H]C([2H])([2H])c1cc(CC(=O)Nc2cnn(C(C)(C)C)c2)ccc1Oc1ccnc2ccc(S(=O)(=O)C([2H])([2H])[2H])cc12 [Compound 485, N-(1-(tert-butyl)-1H-pyrazol-4-yl)-2-(3-(methyl-d3)-4-((6-((methyl-d3)sulfonyl)quinolin-4-yl)oxy)phenyl)acetamide]
1.8	< 2.5		CSc1ccc2nccc(Oc3ccc(CC(=O)Nc4cnn(C(C)(C)C)c4)cc3C)c2c1 [Compound 486, N-(1-(tert-butyl)-1H-pyrazol-4-yl)-2-(3-methyl-4-((6-(methylthio)quinolin-4-yl)oxy)phenyl)acetamide]
0.1	< 2.5		[2H]C([2H])([2H])NC(=O)c1ccc2nccc(Oc3ccc(CC(=O)Nc4cnn(C(C)(C)C)c4)cc3C)c2c1 [Compound 491, 4-(4-(2-((1-(tert-butyl)-1H-pyrazol-4-yl)amino)-2-oxoethyl)-2-methylphenoxy)-N-(methyl-d3)quinoline-6-carboxamide]
0.2	< 2.5		[2H]C([2H])([2H])NC(=O)c1cc2c(Oc3ccc(CC(=O)Nc4cnn(C(C)(C)C)c4)cc3C)ccnc2cc1F [Compound 493, 4-(4-(2-((1-(tert-butyl)-1H-pyrazol-4-yl)amino)-2-oxoethyl)-2-methylphenoxy)-7-fluoro-N-(methyl-d3)quinoline-6-carboxamide]
0.3	< 2.5		Cc1cc(CC(=O)Nc2cnn(C(C)(C)C)c2)c(F)cc1Oc1ccnc2ccc(-c3cnccc3C)cc12 [Compound 507, N-(1-(tert-butyl)-1H-pyrazol-4-yl)-2-(2-fluoro-5-methyl-4-((6-(4-methylpyridin-3-yl)quinolin-4-yl)oxy)phenyl)acetamide]
2.5	< 2.5		Cc1cc(CC(=O)Nc2cnn(C(C)(C)C)c2)c(F)cc1Oc1ccnc2ccc(-c3cccnc3C)cc12 [Compound 508, N-(1-(tert-butyl)-1H-pyrazol-4-yl)-2-(2-fluoro-5-methyl-4-((6-(2-methylpyridin-3-yl)quinolin-4-yl)oxy)phenyl)acetamide]
